Results as given in article PMC9525273 (Nature Communications, 2022).
Where “and” joins values, the source holds several entries; their conditions need not be identical. Equal values may be shown once. Read-outs that look alike come from different tables or passages of the source.

Key:
NF54^G358S-3 parasites = test: P. falciparum proliferation assay (72 h, flow cytometry, SYBR Green I/MitoTracker); type: cell-based; conditions: Plasmodium falciparum, NF54G358S-3, mean ± SEM, n = 3
Experimental: Two types of parasite proliferation assays were employed in this study, with both yielding highly consistent results. For the NF54-based lines and Dd2-B2-PfATP4^G358S and its parent, assays were initiated with cultures containing predominantly ring-stage parasites with a parasitaemia of 0.3% and a haematocrit of 1%. All assays using NF54 were performed in culture media containing 10% O + human serum. The duration of the assays was 72 h and the concentration of DMSO was <0.5% (v/v). Serial dilutions of the test compounds were performed using a Tecan D300e digital dispenser, with parasite cultures added manually. Parasite survival was assessed by flow cytometry on an Intellicyt iQue3 (Essen Bioscience), with 1× SYBR Green I (Invitrogen) and 200 nM MitoTracker Deep Red FM (Invitrogen) used to stain the nucleus and the mitochondria in live parasites, respectively. The gating strategy used to quantify parasite survival, performed using FlowJo version 10 (FlowJo LLC.), is illustrated in Supplementary Fig. 9. IC50 and IC90 values were calculated by linear interpolation of the dose-response data.

[1] = tested on: MMV665949-selected Culture 1 (from Dd2-Polδ; not cloned); test: P. falciparum proliferation assay (72 h, fluorescent DNA-intercalating dye); type: cell-based, Plasmodium falciparum; conditions: Plasmodium falciparum, DD2; MMV665949-selected Culture 1; mean ± SEM, n = 3; read-out: IC50 value
Experimental: (§1) For experiments with all other parasites, the effects of compounds of interest on parasite proliferation was measured in 96-well plates containing serial dilutions of the compounds in culture medium, with a fluorescent DNA-intercalating dye used to detect surviving parasites. The assays were initiated with erythrocytes infected with predominantly ring-stage parasites, and the starting parasitaemia and haematocrit were both 1%. […] Fluorescence was measured using a FLUOstar OPTIMA plate reader (BMG LABTECH), with OPTIMA version 2.20R2 and MARS Data Analysis Software version 3.01 R2 (BMG LABTECH).

[2] = tested on: cipargamin-selected culture A (from Dd2-PfATP4^T418N,P990R); test: as above; type: cell-based; conditions: Plasmodium falciparum, culture A at end of drug-exposure period, mean ± SEM, n = 3
Experimental: as §1

[3] = tested on: cipargamin-selected culture B (from Dd2-PfATP4^T418N,P990R); test: as above; type: cell-based; conditions: Plasmodium falciparum, culture B at end of drug-exposure period, mean ± SEM, n = 3
Experimental: as §1

[4] = tested on: extracellular T. gondii tachyzoites expressing TgATP4^G419S-HA; test: [Na+]cyt measurement (SBFI), Na+ dysregulation; type: cell-based, Toxoplasma gondii; set-up: Final [Na+]cyt reached: unit not given here; conditions: TgATP4G419S-HA; for IC50: Toxoplasma gondii
Experimental: (§2) The ratio of the fluorescence intensity recorded at 340 nm and 380 nm (with an emission wavelength of 515 nm) was converted to [Na^+]cyt using a calibration procedure that entailed suspending parasites in solutions of varying [Na^+] containing ionophores. Fluorescence measurements and calibrations were performed at 37 °C, either with individual 1 mL suspensions using a PerkinElmer LS 50B fluorescence spectrometer (for resting [Na^+]cyt measurements for which the data are shown in Supplementary Fig. 7) or in 96-well plates using a Tecan Infinite M1000 PRO plate reader with i-control (version 1.12) software (all other [Na^+]cyt measurements).

[5] = tested on: extracellular T. gondii tachyzoites expressing TgATP4^WT; test: [Na+]cyt measurement (SBFI), Na+ dysregulation; type: cell-based, Toxoplasma gondii; set-up: Final [Na+]cyt reached: unit not given here
Experimental: as §2

[6] = clinical trials, sustained periods; cited from earlier work

## C[C@H]1Cc2c([nH]c3cc(Cl)c(F)cc23)[C@@]2(N1)C(=O)Nc1ccc(Cl)cc12 [Cipargamin]
NF54^G358S-3 parasites
  IC50: 2200 ± 700 nM
[1]
  IC50: 1.42 ± 0.3 nM
[2]
  IC50: 5900 ± 200 nM
[3]
  IC50: 6200 ± 200 nM
[4]; [cipargamin] 7.8 nM, MEAN
  Final [Na+]cyt reached: 14.1
[4]; [cipargamin] 7.8 nM, single experiments
  Final [Na+]cyt reached: 13.4 and 14.3 and 14.5
[4]; [cipargamin] 15.6 nM, MEAN
  Final [Na+]cyt reached: 15.4
[4]; [cipargamin] 15.6 nM, single experiments
  Final [Na+]cyt reached: 14.1 and 15.1 and 17.0
[4]; [cipargamin] 31.3 nM, MEAN
  Final [Na+]cyt reached: 15.4
[4]; [cipargamin] 31.3 nM, single experiments
  Final [Na+]cyt reached: 13.9 and 14.5 and 17.9
[4]; [cipargamin] 62.5 nM, MEAN
  Final [Na+]cyt reached: 14.3
[4]; [cipargamin] 62.5 nM, single experiments
  Final [Na+]cyt reached: 13.2 and 14.1 and 15.7
[4]; [cipargamin] 250 nM, MEAN
  Final [Na+]cyt reached: 13.7
[4]; [cipargamin] 250 nM, single experiments
  Final [Na+]cyt reached: 13.6 and 14.5 and 12.9
[4]; [cipargamin] 500 nM, MEAN
  Final [Na+]cyt reached: 14.5
[4]; [cipargamin] 500 nM, single experiments
  Final [Na+]cyt reached: 12.6 and 13.5 and 17.5
[4]; [cipargamin] 1000 nM, MEAN
  Final [Na+]cyt reached: 16.4
[4]; [cipargamin] 1000 nM, single experiments
  Final [Na+]cyt reached: 14.3 and 16.7 and 18.1
[4]; [cipargamin] 2000 nM, MEAN
  Final [Na+]cyt reached: 17.1
[4]; [cipargamin] 2000 nM, single experiments
  Final [Na+]cyt reached: 13.3 and 17.0 and 20.8
[4]; [cipargamin] 4000 nM, MEAN
  Final [Na+]cyt reached: 24.3
[4]; [cipargamin] 4000 nM, single experiments
  Final [Na+]cyt reached: 22.1 and 21.4 and 29.4
[4]; [cipargamin] 8000 nM, MEAN
  Final [Na+]cyt reached: 34.2
[4]; [cipargamin] 8000 nM, single experiments
  Final [Na+]cyt reached: 32.0 and 31.0 and 39.5
[4]; 1.5 h, ~90 min exposure, 37 °C, pH 7.1, read-out: IC50 for Na+ dysregulation
  IC50: > 8000 nM
[4]; MEAN, source data of Table 1 (nM there), read-out: IC50 for Na+ dysregulation, MEAN
  IC50: > 8000 nM
[4]; single experiments, source data of Table 1 (nM there), read-out: IC50 for Na+ dysregulation
  IC50: > 8000 nM
[5]; Toxoplasma gondii, 1.5 h, pH 7.1, WT T. gondii (TgATP4WT), ~90 min exposure, 37 °C, pH 7.1, mean ± SEM, read-out: IC50 for Na+ dysregulation
  IC50: 110 ± 3 nM
[5]; Toxoplasma gondii, WT T. gondii, MEAN, source data of Table 1 (nM there), read-out: IC50 for Na+ dysregulation, MEAN
  IC50: 110 nM
[5]; Toxoplasma gondii, WT T. gondii, single experiments, source data of Table 1 (nM there), read-out: IC50 for Na+ dysregulation
  IC50: 103 nM
[5]; WT T. gondii, [cipargamin] 0.5 nM, MEAN
  Final [Na+]cyt reached: 15.8
[5]; WT T. gondii, [cipargamin] 0.5 nM, single experiments
  Final [Na+]cyt reached: 14.2 and 16.3 and 16.8
[5]; WT T. gondii, [cipargamin] 1.0 nM, MEAN
  Final [Na+]cyt reached: 16.2
[5]; WT T. gondii, [cipargamin] 1.0 nM, single experiments
  Final [Na+]cyt reached: 15.5 and 17.0 and 16.2
[5]; WT T. gondii, [cipargamin] 2.0 nM, MEAN
  Final [Na+]cyt reached: 14.1
[5]; WT T. gondii, [cipargamin] 3.9 nM, MEAN
  Final [Na+]cyt reached: 20.7
[5]; WT T. gondii, [cipargamin] 3.9 nM, single experiments
  Final [Na+]cyt reached: 19.6 and 20.6 and 21.8
[5]; WT T. gondii, [cipargamin] 7.8 nM, MEAN
  Final [Na+]cyt reached: 23.3
[5]; WT T. gondii, [cipargamin] 7.8 nM, single experiments
  Final [Na+]cyt reached: 25.2 and 22.3 and 22.5
[5]; WT T. gondii, [cipargamin] 15.6 nM, MEAN
  Final [Na+]cyt reached: 26.7
[5]; WT T. gondii, [cipargamin] 15.6 nM, single experiments
  Final [Na+]cyt reached: 29.0 and 26.8 and 24.3
[5]; WT T. gondii, [cipargamin] 31.3 nM, MEAN
  Final [Na+]cyt reached: 34.0
[5]; WT T. gondii, [cipargamin] 31.3 nM, single experiments
  Final [Na+]cyt reached: 35.7 and 36.9 and 29.4
[5]; WT T. gondii, [cipargamin] 62.5 nM, MEAN
  Final [Na+]cyt reached: 44.2
[5]; WT T. gondii, [cipargamin] 62.5 nM, single experiments
  Final [Na+]cyt reached: 43.2 and 51.7 and 37.6
[5]; WT T. gondii, [cipargamin] 250 nM, MEAN
  Final [Na+]cyt reached: 75.6
[5]; WT T. gondii, [cipargamin] 250 nM, single experiments
  Final [Na+]cyt reached: 72.9 and 86.9 and 66.9
[5]; WT T. gondii, [cipargamin] 500 nM, MEAN
  Final [Na+]cyt reached: 86.6
[5]; WT T. gondii, [cipargamin] 500 nM, single experiments
  Final [Na+]cyt reached: 82.0 and 102.0 and 75.9
[5]; WT T. gondii, [cipargamin] 1000 nM, MEAN
  Final [Na+]cyt reached: 91.2
[5]; WT T. gondii, [cipargamin] 1000 nM, single experiments
  Final [Na+]cyt reached: 85.2 and 107.2 and 81.2
[5]; WT T. gondii, single experiments, source data of Table 1 (nM there), read-out: IC50 for Na+ dysregulation
  IC50: 113 nM
[6]
  concentration reached in human plasma: supramicromolar concentrations
